Measurements as given in patent US20080194574A1, “Pyrazine Derivatives As Effective Compounds Against Infectious Diseases” (AXXIMA PHARMACEUTICALS AG, priority 2003, published 2008).

Biological target: T1, viral kinase pUL-97 (Human cytomegalovirus, UniProt P16788)
T1 construct: The pUL-97 gene was cloned into a baculovirus vector; GST (glutathione S-transferase) (N); made in house; host or cells: Sf9 insect cells, baculovirus
Test: UL97 kinase assay on Immobilon plate
Format: biochemical
Settings: inhibition of UL 97 kinase activity; class by IC50 / % inhibition at 10 or 100 μM; read-out: Activity Class [A, B, C]
Summary of the method: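 GST-pUL97 from baculovirus-infected Sf9 cells phosphorylated myelin basic protein with ATP (3 μM in the added assay buffer) and γ-[33P]ATP in Tris-HCl pH 7.5 buffer with MnCl2 and DTT. Reaction ran 1 h at 30 °C with graded compound concentrations and was stopped with EDTA. 33P incorporation was measured by scintillation after filter capture and phosphoric acid washes.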

T1 sequence (P16788 whole entry): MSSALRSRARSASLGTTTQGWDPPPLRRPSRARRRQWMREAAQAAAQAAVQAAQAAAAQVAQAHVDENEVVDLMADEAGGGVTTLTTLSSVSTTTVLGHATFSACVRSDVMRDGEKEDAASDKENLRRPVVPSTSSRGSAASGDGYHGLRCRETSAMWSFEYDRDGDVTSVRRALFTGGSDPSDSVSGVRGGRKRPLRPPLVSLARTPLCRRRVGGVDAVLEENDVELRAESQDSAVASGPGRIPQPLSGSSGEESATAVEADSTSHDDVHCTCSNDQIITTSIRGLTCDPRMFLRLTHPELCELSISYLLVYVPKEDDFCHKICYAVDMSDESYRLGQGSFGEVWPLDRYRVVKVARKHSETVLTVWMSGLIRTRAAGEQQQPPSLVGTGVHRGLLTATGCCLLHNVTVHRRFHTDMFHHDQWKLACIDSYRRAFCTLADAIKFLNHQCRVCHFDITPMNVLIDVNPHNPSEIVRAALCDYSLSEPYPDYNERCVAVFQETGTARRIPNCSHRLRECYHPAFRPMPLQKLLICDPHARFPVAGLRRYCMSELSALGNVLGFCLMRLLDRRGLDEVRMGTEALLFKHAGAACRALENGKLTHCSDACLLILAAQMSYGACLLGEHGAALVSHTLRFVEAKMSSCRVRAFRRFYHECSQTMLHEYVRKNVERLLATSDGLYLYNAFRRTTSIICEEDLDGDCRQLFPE

Structure (SMILES)	IC50 [µM]
N#Cc1ccc(-c2cncc(N3CCN(c4ccncc4)CC3)n2)cc1 [compound 131, 4-(4-Pyridin-4-yl-3,4,5,6-tetrahydro-2H-[1,2′]bipyrazinyl-6′-yl)-benzonitrile]	1 to 10
CC(=O)c1ccc(-c2cncc(N3CCN(c4ccncc4)CC3)n2)cc1 [compound 133, 1-[4-(4-Pyridin-4-yl-3,4,5,6-tetrahydro-2H-[1,2′]bipyrazinyl-6′-yl)-phenyl]-ethanone]	1 to 10
COc1cccc(-c2cncc(N3CCN(c4ccc(OC)c(OC)c4)CC3)n2)c1 [compound 134, 4-(3,4-Dimethoxy-phenyl)-6′-(3-methoxy-phenyl)-3,4,5,6-tetrahydro-2H-[1,2′]bipyrazinyl]	1 to 10
Cc1ccc(N2CCN(c3cncc(-c4ccc(F)cc4)n3)CC2)cc1 [compound 136, 6′-(4-Fluoro-phenyl)-4-p-tolyl-3,4,5,6-tetrahydro-2H-[1,2′]bipyrazinyl]	1 to 10
CSc1ccc(-c2cncc(N3CCN(c4ccc(C)cc4)CC3)n2)cc1 [compound 137, 6′-(4-Methylsulfanyl-phenyl)-4-p-tolyl-3,4,5,6-tetrahydro-2H-[1,2′]bipyrazinyl]	1 to 10
COc1ccc(-c2cncc(N3CCN(c4ccc(F)cc4)CC3)n2)cc1OC [compound 139, 6′-(3,4-Dimethoxy-phenyl)-4-(4-fluoro-phenyl)-3,4,5,6-tetrahydro-2H-[1,2′]bipyrazinyl]	1 to 10
CSc1ccc(-c2cncc(N3CCN(c4ccc(F)cc4)CC3)n2)cc1 [compound 140, 4-(4-Fluoro-phenyl)-6′-(4-methylsulfanyl-phenyl)-3,4,5,6-tetrahydro-2H-[1,2′]bipyrazinyl]	1 to 10
Cc1ccc(-c2cncc(N3CCN(c4ccc(F)cc4F)CC3)n2)cc1 [compound 142, 4-(2,4-Difluoro-phenyl)-6′-p-tolyl-3,4,5,6-tetrahydro-2H-[1,2′]bipyrazinyl]	10 to 100
COc1ccc(OC)c(-c2cncc(N3CCN(c4ccc(F)cc4F)CC3)n2)c1 [compound 144, 4-(2,4-Difluoro-phenyl)-6′-(2,5-dimethoxy-phenyl)-3,4,5,6-tetrahydro-2H-[1,2′]bipyrazinyl]	10 to 100
Fc1ccc(N2CCN(c3cncc(-c4ccc(F)c(Cl)c4)n3)CC2)c(F)c1 [compound 145, 6′-(3-Chloro-4-fluoro-phenyl)-4-(2,4-difluoro-phenyl)-3,4,5,6-tetrahydro-2H-[1,2′]bipyrazinyl]	10 to 100
CC(=O)c1ccc(N2CCN(c3cncc(-c4ccc(C)cc4)n3)CC2)cc1 [compound 148, 1-[4-(6′-p-Tolyl-2,3,5,6-tetrahydro-[1,2′]bipyrazinyl-4-yl)-phenyl]-ethanone]	1 to 10
CC(=O)c1ccc(N2CCN(c3cncc(-c4ccc(F)c(Cl)c4)n3)CC2)cc1 [compound 151]	10 to 100
CSc1ccc(-c2cncc(N3CCN(c4ccc(C(C)=O)cc4)CC3)n2)cc1 [compound 159]	< 1
c1ccc(Oc2ccc(-c3cncc(N4CCN(c5ccncc5)CC4)n3)cc2)cc1 [compound 163, 6′-(4-Phenoxy-phenyl)-4-pyridin-4-yl-3,4,5,6-tetrahydro-2H-[1,2′]bipyrazinyl]	1 to 10
Cc1cc(C)cc(-c2cncc(N3CCN(c4ccncc4)CC3)n2)c1 [compound 165, 6′-(3,5-Dimethyl-phenyl)-4-pyridin-4-yl-3,4,5,6-tetrahydro-2H-[1,2′]bipyrazinyl]	1 to 10
N#Cc1cccc(-c2cncc(N3CCN(c4ccncc4)CC3)n2)c1 [compound 167, 3-(4-Pyridin-4-yl-3,4,5,6-tetrahydro-2H-[1,2′]bipyrazinyl-6′-yl)-benzonitrile]	1 to 10
COc1ccc(N2CCN(c3cncc(-c4ccc(Oc5ccccc5)cc4)n3)CC2)cc1OC [compound 168, 4-(3,4-Dimethoxy-phenyl)-6′-(4-phenoxy-phenyl)-3,4,5-6-tetrahydro-2H-[1,2′]bipyrazinyl]	10 to 100
COc1ccc2cc(-c3cncc(N4CCN(c5ccc(OC)c(OC)c5)CC4)n3)ccc2c1 [compound 169, 4-(3,4-Dimethoxy-phenyl)-6′-(6-methoxy-naphthalen-2-yl)-3,4,5,6-tetrahydro-2H-[1,2′]bipyrazinyl]	1 to 10

Now from value to compound:

IC50 [µM]	Structure (SMILES)
1 to 10	CCOc1ccc(-c2cncc(N3CCN(c4cccc(Cl)c4)CC3)n2)cc1 [compound 129, 4-(3-Chloro-phenyl)-6′-(4-ethoxy-phenyl)-3,4,5,6-tetrahydro-2H-[1,2′]bipyrazinyl]
1 to 10	CC(=O)c1ccc(-c2cncc(N3CCN(c4ccccc4F)CC3)n2)cc1 [compound 130, 1-{4-[4-(2-Fluoro-phenyl)-3,4,5,6-tetrahydro-2H-[1,2′]bipyrazinyl-6′-yl]-phenyl}-ethanone]
1 to 10	CC(=O)c1cccc(-c2cncc(N3CCN(c4ccncc4)CC3)n2)c1 [compound 132, 1-[3-(4-Pyridin-4-yl-3,4,5,6-tetrahydro-2H-[1,2′]bipyrazinyl-6′-yl)-phenyl]-ethanone]
10 to 100	Cc1ccc(N2CCN(c3cncc(-c4ccccc4)n3)CC2)cc1 [compound 135, 6′-Phenyl-4-p-tolyl-3,4,5,6-tetrahydro-2H-[1,2′]bipyrazinyl]
10 to 100	Fc1ccc(-c2cncc(N3CCN(c4ccc(F)cc4)CC3)n2)cc1 [compound 138, 4,6′-Bis-(4-fluoro-phenyl)-3,4,5,6-tetrahydro-2H-[1,2′]bipyrazinyl]
1 to 10	CC(=O)c1ccccc1-c1cncc(N2CCN(c3ccc(F)cc3F)CC2)n1 [compound 141, 1-{2-[4-(2,4-Difluoro-phenyl)-3,4,5,6-tetrahydro-2H-[1,2′]bipyrazinyl-6′-yl]-phenyl}-ethanone]
10 to 100	Fc1ccc(N2CCN(c3cncc(-c4cccc5ccccc45)n3)CC2)c(F)c1 [compound 143, 4-(2,4-Dinfluoro-phenyl)-6′-naphthalen-1-yl-3,4,5,6-tetrahydro-2H-[1,2′]bipyrazinyl]
10 to 100	CC(=O)c1ccc(N2CCN(c3cncc(-c4ccccc4C(C)=O)n3)CC2)cc1 [compound 146, 1-{2-[4-(4-Acetyl-phenyl)-3,4,5,6-tetrahydro-2H-[1,2′]bipyrazinyl-6′-yl]-phenyl}-ethanone]
10 to 100	CC(=O)c1ccc(N2CCN(c3cncc(-c4cccc(C)c4)n3)CC2)cc1 [compound 147, 1-[4-(6′-m-Tolyl-2,3,5,6-tetrahydro-[1,2′]bipyrazinyl-4-yl)-phenyl]-ethanone]
10 to 100	CC(=O)c1ccc(N2CCN(c3cncc(-c4cccc5ccccc45)n3)CC2)cc1 [compound 149, 1-[4-(6′-Naphthalen-1-yl-2,3,5,6-tetrahydro-[1,2′]bipyrazinyl-4-yl)-phenyl]-ethanone]
10 to 100	CC(=O)c1ccc(N2CCN(c3cncc(-c4cccc(C)c4C)n3)CC2)cc1 [compound 150]
1 to 10	CC(=O)c1ccc(N2CCN(c3cncc(-c4csc5ccccc45)n3)CC2)cc1 [compound 152, 1-[4-(6′-Benzo[b]thiophen-3-yl-2,3,5,6-tetrahydro-[1,2′]bipyrazinyl-4-yl)-phenyl]-ethanone]
10 to 100	CC(=O)c1ccccc1-c1cncc(N2CCN(c3cccc(C(F)(F)F)c3)CC2)n1 [compound 153, 1-{2-[4-(3-Trifluoromethyl-phenyl)-3,4,5,6-tetrahydro-2H-[1,2′]bipyrazinyl-6′-yl]-phenyl}-ethanone]
10 to 100	Cc1cccc(-c2cncc(N3CCN(c4cccc(C(F)(F)F)c4)CC3)n2)c1 [compound 154, 6′-m-Tolyl-4-(3-trifluoromethyl-phenyl)-3,4,5,6-tetrahydro-2H-[1,2′]bipyrazinyl]
10 to 100	Cc1ccc(-c2cncc(N3CCN(c4cccc(C(F)(F)F)c4)CC3)n2)cc1 [compound 155, 6′-p-Tolyl-4-(3-trifluoromethyl-phenyl)-3,4,5,6-tetrahydro-2H-[1,2′]bipyrazinyl]
10 to 100	Cc1cccc(-c2cncc(N3CCN(c4cccc(C(F)(F)F)c4)CC3)n2)c1C [compound 156, 6′-(2,3-Dimethyl-phenyl)-4-(3-trifluoromethyl-phenyl)-3,4,5,6-tetrahydro-2H-[1,2′]bipyrazinyl]
10 to 100	Fc1ccc(-c2cncc(N3CCN(c4cccc(C(F)(F)F)c4)CC3)n2)cc1Cl [compound 157, 6′-(3-Chloro-4-fluoro-phenyl)-4-(3-trifluoromethyl-phenyl)-3,4,5,6-tetrahydro-2H-[1,2′]bipyrazinyl]
10 to 100	FC(F)(F)c1cccc(N2CCN(c3cncc(-c4csc5ccccc45)n3)CC2)c1 [compound 158, 6′-Benzo[b]thiophen-3-yl-4-(3-trifluoromethyl-phenyl)-3,4,5,6-tetrahydro-2H-[1,2′]bipyrazinyl]
1 to 10	FC(F)(F)c1cccc(N2CCN(c3cncc(-c4cc5ccccc5s4)n3)CC2)c1 [compound 160, 6′-Benzo[b]thiophen-2-yl-4-(3-trifluoromethyl-phenyl)-3,4,5,6-tetrahydro-2H-[1,2′]bipyrazinyl]
10 to 100	COc1ccc(-c2cncc(N3CCN(c4cccc(C(F)(F)F)c4)CC3)n2)cc1OC [compound 161, 6′-(3,4-Dimethoxy-phenyl)-4-(3-trifluoromethyl-phenyl)-3,4,5,6-tetrahydro-2H-[1,2′]bipyrazinyl]
10 to 100	CC(=O)c1cccc(-c2cncc(N3CCN(c4cccc(C(F)(F)F)c4)CC3)n2)c1 [compound 162, 1-{3-[4-(3-Trifluoromethyl-phenyl)-3,4,5,6-tetrahydro-2H-[1,2′]bipyrazinyl-6′-yl]-phenyl}-ethanone]
10 to 100	FC(F)(F)c1cc(-c2cncc(N3CCN(c4ccncc4)CC3)n2)cc(C(F)(F)F)c1 [compound 164, 6′-(3,5-Bis-trifluoromethyl-phenyl)-4-pyridin-4-yl-3,4,5,6-tetrahydro-2H-[1,2′]bipyrazinyl]
10 to 100	CSc1ccccc1-c1cncc(N2CCN(c3ccncc3)CC2)n1 [compound 166, 6′-(2-Methylsulfanyl-phenyl)-4-pyridin-4-yl-3,4,5,6-tetrahydro-2H-[1,2′]bipyrazinyl]
